How the values were obtained:
[1] = tested on: rat two-level spine model; test: posterolateral spinal fusion in a rat two-level spine model (radiographs, manual palpation); assay type: in vivo; settings: for spinal fusion (figure legend): bone growth at 4 and 8 weeks, fusion confirmed by manual palpation at 8 weeks; for bridging bone on radiographs: 4-week and 8-week timepoints, rat L3-L5; for fusion observed in rat spines (manual palpation): matrix of Oxy133, collagen and ceramic wetted with sterile water, two implants bilaterally in posterolateral space, 8-week sacrifice
Protocol: FIG. 6 illustrates uses of a formulation of compression resistant implants having 20 mg of Oxy133 on each side of the implant, in accordance with the implants described herein. […] Bone growth in rat test subjects can be seen after 4 and 8 weeks post-implantation, and fusion was confirmed by manual palpation of the spine segments at 8 weeks. […] A dry composition of a matrix containing Oxy133, collagen and ceramic as described herein was prepared and wetted with sterile water to be implanted in rat spines as shown in FIG. 6. The wetted matrix was cut in half with a razor blade to yield two halves. The two implants were molded into cylindrical shapes prior to insertion and were positioned bilaterally in the posterolateral space of each test subject. Each implant contained 20 mg Oxy133. Radiographs were taken roughly 10 minutes after the procedure, 4 weeks after the procedure, and 8 weeks after the procedure. […] Fusion was tested at 8-week sacrifice by manual palpation. […] A dry composition of a matrix containing Oxy133, collagen and ceramic as described herein was prepared and wetted with sterile water to be implanted in rat spines as shown in FIG. 6. The wetted matrix was cut in half with a razor blade to yield two halves. The two implants were molded into cylindrical shapes prior to insertion and were positioned bilaterally in the posterolateral space of each test subject. Each implant contained […] Oxy133. Radiographs were taken roughly 10 minutes after the procedure, 4 weeks after the procedure, and 8 weeks after the procedure. […] Fusion was tested at 8-week sacrifice by manual palpation.

solubility in water = assay type: physicochemical
Excerpt: The Oxy133 can be solubilized in a non-aqueous solvent, such as for example, ethanol and mixed into a solution or suspension. In some embodiments, the Oxy 133 can be filtered by passing the Oxy 133 and solvent through a filter (e.g., 0.22 microns). This will remove bacteria and other larger-size particulates out of the composition. The Oxy 133 used in the composition can be micronized before it is mixed with solvents and other excipients. In various embodiments, the particle size of the Oxy 133 can range from about 1 micron to 250 microns. In some embodiments, the Oxy 133 can have a particle size of from about 5 microns to about 100 microns or from about 20 to 50 microns. The Oxy 133 in the solution or suspension can be added to a slurry of biodegradable polymer and/or the ceramic particles, mixed and, then optionally dried.

With `CCCCCC[C@](C)(O)[C@H]1CC[C@H]2[C@@H]3C[C@H](O)[C@H]4C[C@@H](O)CC[C@]4(C)[C@H]3CC[C@@]21C` [Oxy133, (3S,5S,6S,8R,9S,10R,13S,14S,17S)-17-((S)-2-hydroxyoctan-2-yl)-10,13-dimethylhexadecahydro-1H-cyclopenta [a]phenanthrene-3,6-diol] as the compound, how does the “spinal fusion (figure legend)” value ([1]; 20 mg of Oxy133 on each side, FIG. 6) read?
Its value is “yielded spinal fusion”.

And the “spinal fusion (figure legend)” value ([1]; 125 mg of Oxy133 on each side, FIG. 7)?
The value was “yielded spinal fusion”.

And the “bridging bone on radiographs” value ([1]; each implant 20 mg Oxy133)?
The value was “promoted bridging bone across the transverse processes of L3-L5”.

What about the “bridging bone on radiographs” value ([1]; each implant 125 mg Oxy133) of the same compound?
Its value is “promoted bridging bone across the transverse processes of L3-L5”.

And the “fusion observed in rat spines (manual palpation)” value ([1]; each implant 20 mg Oxy133)?
The value was 100%.

And the “fusion observed in rat spines (manual palpation)” value ([1]; each implant 125 mg Oxy133)?
Its value is 100%.

And the solubility in water (solubility in water)?
The solubility in water was “only slightly soluble or insoluble in water”.

— patent US12171909B2, “Implants having a drug load of an oxysterol and methods of use” (WARSAW ORTHOPEDIC, INC., priority 2015, dated 2024)
